According to patent publication US7989469B2, “Certain chemical entities, compositions, and methods” (Cytokinetics, Incorporated, priority 2008, dated 2011):

tested on: rabbit skeletal muscle myofibril preparations (approximately 90% fast fibers); assay: Activation of fast skeletal muscle fibers: enzymatic activity of myofibril preparations (PUMA assay system); assay type: biochemical; design: unit not given here; settings: detergent treated myofibrils at pCa25%, 500 μM ATP; cells marked †: Mean value
Text: Fast fiber activators were identified by measuring the enzymatic activity of muscle myofibril preparations using the proprietary PUMA™ (see, e.g., U.S. Pat. Nos. 6,410,254, 6,743,599, 7,202,051, and 7,378,254) assay system. Myofibril preparations consisted of rabbit skeletal muscle (approximately 90% fast fibers) that had been treated with a detergen (triton X-100) to remove cellular membranes and then homogenized. This preparation retained all of the sarcomeric components in a native conformation and the enzymatic activity was still regulated by calcium. Compounds were tested using a myofibril suspension and a level of calcium sufficient to increase enzymatic activity of the myofibrils to 25% of their maximal rate (termed pCa25%). Enzymatic activity was tracked via a kinetic assay with a UV absorption readout. Hits were identified as compounds that increased the rate of enzymatic activity by greater than 40% at 40 μM. Myofibril preparations are calcium regulated and were screened at a level of calcium sufficient to produce a 25% increase in enzymatic rate. Detergent treated myofibrils were incubated with 500 μM ATP and 40 μM compound and a kinetic read of UV absorbance performed. Data was normalized to control wells.

| Molecule | AC1.4 Median |
| --- | --- |
| 6-chloro-1-(ethylpropyl)-7-(3-fluorophenyl)imidazo[4,5-b]pyridin-2-ol | 0.248† |
| 7-(3,4-difluorophenyl)-6-chloro-1-(ethylpropyl)imidazo[4,5-b]pyridin-2-ol | 0.106† |
| CC[C@H](n1c(O)nc2ncc(Cl)c(-c3ccc(F)cc3)c21)C(C)(C)O [1-((1S)-1-ethyl-2-hydroxy-2-methylpropyl)-6-chloro-7-(4-fluorophenyl)imidazo[4,5-b]pyridin-2-ol] | 0.320† |
| CC[C@@H](CO)n1c(O)nc2ncc(Cl)c(-c3ccc(Cl)s3)c21 [1-((1S)-1-ethyl-2-hydroxyethyl)-6-chloro-7-(5-chloro(2-thienyl))imidazo[4,5-b]pyridin-2-ol] | 0.178† |
| 4-[6-chloro-1-(ethylpropyl)-2-hydroxyimidazo[4,5-b]pyridin-7-yl]benzenecarbonitrile | 0.405† |
| CC(C)(C)n1c(O)nc2ncc(Cl)c(-c3ccc(F)cc3)c21 [1-(tert-butyl)-6-chloro-7-(4-fluorophenyl)imidazo[4,5-b]pyridin-2-ol] | 0.199† |
| CC[C@@H](CCO)n1c(O)nc2ncc(Cl)c(-c3ccc(F)cc3)c21 [1-((1S)-1-ethyl-3-hydroxypropyl)-6-chloro-7-(4-fluorophenyl)imidazo[4,5-b]pyridin-2-ol] | 0.475† |
| CCC(CC)n1c(O)nc2ncc(Cl)c(-c3cccs3)c21 [6-chloro-1-(ethylpropyl)-7-(2-thienyl)imidazo[4,5-b]pyridin-2-ol] | 0.136† |
| 6-chloro-7-(4-chlorophenyl)-1-(ethylpropyl)imidazo[4,5-b]pyridin-2-ol | 0.074† |

same assay, conditions: detergent treated myofibrils at pCa25%, 500 μM ATP; median value (no †)

| Molecule | AC1.4 Median |
| --- | --- |
| CC[C@@H](n1c(O)nc2ncc(Cl)c(-c3ccc(F)cc3)c21)C(C)(C)O [1-((1R)-1-ethyl-2-hydroxy-2-methylpropyl)-6-chloro-7-(4-fluorophenyl)imidazo[4,5-b]pyridin-2-ol] | 0.537 |
| OCCn1c(O)nc2ncc(Cl)c(-c3ccccc3)c21 [6-chloro-1-(2-hydroxyethyl)-7-phenylimidazo[4,5-b]pyridin-2-ol] | 34.551 |
| 6-chloro-1-(ethylpropyl)-7-(2-methoxy(4-pyridyl))imidazo[4,5-b]pyridin-2-ol | 2.808 |
| CCC(CC)n1c(O)nc2ncc(Cl)c(-c3ccccc3C=O)c21 [2-[6-chloro-1-(ethylpropyl)-2-hydroxyimidazo[4,5-b]pyridin-7-yl]benzaldehyde] | 1.689 |
| 6-chloro-1-(ethylpropyl)-7-(6-methoxy(3-pyridyl))imidazo[4,5-b]pyridin-2-ol | 2.232 |
| 6-chloro-1-(ethylpropyl)-7-(5-methyl(1,2,4-oxadiazol-3-yl))imidazo[4,5-b]pyridin-2-ol | 4.017 |
| methyl 3-[6-chloro-1-(ethylpropyl)-2-hydroxyimidazo[4,5-b]pyridin-7-yl]benzoate | 9.682 |
| CC[C@H](CO)n1c(O)nc2ncc(Cl)c(-c3ccc(F)cc3)c21 [1-((1R)-1-ethyl-2-hydroxyethyl)-6-chloro-7-(4-fluorophenyl)imidazo[4,5-b]pyridin-2-ol] | 2.367 |
| CC[C@@H](CO)n1c(O)nc2ncc(Cl)c(-c3ccc(C#N)cc3)c21 [4-[1-((1S)-1-ethyl-2-hydroxyethyl)-6-chloro-2-hydroxyimidazo[4,5-b]pyridin-7-yl]benzenecarbonitrile] | 3.249 |
| CC[C@@H](CO)n1c(O)nc2ncc(Cl)c(-c3ccccc3)c21 [1-((1S)-1-ethyl-2-hydroxyethyl)-6-chloro-7-phenylimidazo[4,5-b]pyridin-2-ol] | 1.474 |
| CC[C@H](COC(=O)[C@@H](N)C(C)C)c1nc2nc(O)[nH]c2c(-c2ccc(F)c(F)c2)c1Cl [(2S)-2-[7-(3,4-difluorophenyl)-6-chloro-2-hydroxyimidazo[4,5-b]pyridinyl]butyl (2S)-2-amino-3-methylbutanoate] | 6.640 |
| 2-[6-chloro-1-(ethylpropyl)-2-hydroxyimidazo[4,5-b]pyridin-7-yl]benzamide | 36.169 |
| 1-(ethylpropyl)-7-phenylimidazo[4,5-b]pyridin-2-ol | 2.083 |
| CC[C@@H](CO)n1c(O)nc2ncc(Cl)c(-c3ccc(Cl)cn3)c21 [1-((1S)-1-ethyl-2-hydroxyethyl)-6-chloro-7-(5-chloro(2-pyridyl))imidazo[4,5-b]pyridin-2-ol] | 9.592 |
| C=CCn1c(O)nc2ncc(Cl)c(-c3ccc(F)cc3)c21 [6-chloro-7-(4-fluorophenyl)-1-prop-2-enylimidazo[4,5-b]pyridin-2-ol] | 1.947 |
| 6-chloro-7-(2-chloro-4-methoxyphenyl)-1-(ethylpropyl)imidazo[4,5-b]pyridin-2-ol | 1.898 |
| CC[C@@H](CO)n1c(O)nc2ncc(-c3ccc(F)cc3)c(-c3ccc(F)cc3)c21 [1-((1S)-1-ethyl-2-hydroxyethyl)-6,7-bis(4-fluorophenyl)imidazo[4,5-b]pyridin-2-ol] | 17.720 |
| CC[C@@H](CO)n1c(O)nc2ncc(F)c(-c3ccc(F)cc3)c21 [1-((1S)-1-ethyl-2-hydroxyethyl)-6-fluoro-7-(4-fluorophenyl)imidazo[4,5-b]pyridin-2-ol] | 4.204 |
| 6-chloro-7-(3-chloro(4-pyridyl))-1-(ethylpropyl)imidazo[4,5-b]pyridin-2-ol | 4.471 |
| 6-[6-chloro-1-(ethylpropyl)-2-hydroxyimidazo[4,5-b]pyridin-7-yl]pyridine-3-carbonitrile | 2.892 |

| Molecule | AC1.4 Median |
| --- | --- |
| CC[C@H](CCO)n1c(O)nc2ncc(Cl)c(-c3ccc(F)cc3)c21 [1-((1R)-1-ethyl-3-hydroxypropyl)-6-chloro-7-(4-fluorophenyl)imidazo[4,5-b]pyridin-2-ol] | 2.547 |
| C[C@@H](CCO)n1c(O)nc2ncc(Cl)c(-c3ccc(F)cc3)c21 [1-((1S)-3-hydroxy-1-methylpropyl)-6-chloro-7-(4-fluorophenyl)imidazo[4,5-b]pyridin-2-ol] | 2.309 |
| CC[C@H](C)n1c(O)nc2ncc(Cl)cc21 [1-((1S)-1-methylpropyl)-6-chloroimidazo[4,5-b]pyridin-2-ol] | 1.7291 |
| 6-chloro-1-(ethylpropyl)-7-[4-(methoxymethyl)phenyl]imidazo[4,5-b]pyridin-2-ol | 34.746 |
| CC[C@H](CN)n1c(O)nc2ncc(Cl)c(-c3ccc(F)cc3)c21 [1-((1R)-2-amino-1-ethylethyl)-6-chloro-7-(4-fluorophenyl)imidazo[4,5-b]pyridin-2-ol] | 46.969 |
| 6-chloro-1-(ethylpropyl)-7-imidazolylimidazo[4,5-b]pyridin-2-ol | 22.2909 |
| 6-chloro-1-(ethylpropyl)-7-(2-fluoro-4-methoxyphenyl)imidazo[4,5-b]pyridin-2-ol | 0.942 |
| 6-chloro-1-(ethylpropyl)-7-(5-methylpyrimidin-2-yl)imidazo[4,5-b]pyridin-2-ol | 18.694 |
| CCC(CC)n1c(O)nc2ncc(Cl)c(-c3cccc(S(C)(=O)=O)c3)c21 [1-[6-chloro-1-(ethylpropyl)-2-hydroxyimidazo[4,5-b]pyridin-7-yl]-3-(methylsulfonyl)benzene] | 38.633 |
| CCC(CC)n1c(O)nc2ncc(Cl)c(-c3ccc(S(C)(=O)=O)cc3)c21 [1-[6-chloro-1-(ethylpropyl)-2-hydroxyimidazo[4,5-b]pyridin-7-yl]-4-(methylsulfonyl)benzene] | 45.324 |
| CCC(CC)n1c(O)nc2ncc(Cl)c(-c3ccnc(C#N)c3)c21 [4-(6-chloro-2-hydroxy-1-(pentan-3-yl)-1H-imidazo[4,5-b]pyridin-7-yl)picolinonitrile] | 9.842 |
| 6-chloro-1-(ethylpropyl)-7-(2-methyl(4-pyridyl))imidazo[4,5-b]pyridin-2-ol | 14.091 |
| CC[C@@H](CO)n1c(O)nc2ncc(Cl)c(-c3ccc(F)c(F)c3)c21 [1-((1S)-1-ethyl-2-hydroxyethyl)-7-(3,4-difluorophenyl)-6-chloroimidazo[4,5-b]pyridin-2-ol] | 0.707 |
| CC[C@H](c1nc2nc(O)[nH]c2c(-c2ccc(F)cc2)c1Cl)C(CO)CO [2-{(1S)-1-[6-chloro-7-(4-fluorophenyl)-2-hydroxyimidazo[4,5-b]pyridinyl]propyl}propane-1,3-diol] | 4.6812 |
| 6-chloro-1-(ethylpropyl)-7-(3-pyridyl)imidazo[4,5-b]pyridin-2-ol | 8.030 |
| 6-chloro-1-(methylethyl)-7-pyrazolylimidazo[4,5-b]pyridin-2-ol | 2.0829 |
| 6-chloro-1-(ethylpropyl)-7-(1-methylpyrazol-3-yl)imidazo[4,5-b]pyridin-2-ol | 1.7950 |
| 6-chloro-1-(ethylpropyl)-7-(3-fluoro-4-methoxyphenyl)imidazo[4,5-b]pyridin-2-ol | 2.102 |
| CC[C@@H](CO)n1c(O)nc2ncc(Cl)c(-c3cnccn3)c21 [1-((1S)-1-ethyl-2-hydroxyethyl)-6-chloro-7-pyrazin-2-ylimidazo[4,5-b]pyridin-2-ol] | 40.701 |
| 6-chloro-1-(ethylpropyl)-7-pyrazol-4-ylimidazo[4,5-b]pyridin-2-ol | 38.791 |
